Data set [1] deals with Mycosphaerella graminicola (Anamorph: Septoria tritici; Bayer Code SEPTTR). Nature of the data set: Fungicidal activity: Leaf Blotch of Wheat (SEPTTR), wheat seedlings in greenhouse. The class given is in vivo. Also on record: key to Disease Control SEPTTR 1DP: A: 80-100; B: More than 0—Less than 80; C: Not Tested; D: No activity noticed in this bioassay. The settings on record: wheat (variety Yuma); for pest or weed control at 50 ppm: Zymoseptoria tritici. The method, then: (§1) Technical grades of materials were dissolved in acetone, which were then mixed with nine volumes of water containing 110 ppm Triton X-100. The fungicide solutions were applied onto wheat seedlings using an automated booth sprayer to run-off. All sprayed plants were allowed to air dry prior to further handling. Wheat plants (variety Yuma) were grown from seed in a greenhouse in 50% mineral soil/50% soil-less Metro mix until the first leaf was fully emerged, with 7-10 seedlings per pot. These plants were inoculated with an aqueous spore suspension of Septoria tritici either prior to or after fungicide treatments. After inoculation the plants were kept in 100% relative humidity (one day in a dark dew chamber followed by two to three days in a lighted dew chamber at 20° C.) to permit spores to germinate and infect the leaf. The plants were then transferred to a greenhouse set at 20° C. for disease to develop. When disease symptoms were fully expressed on the 1st leaves of untreated plants, infection levels were assessed on a scale of 0 to 100 percent disease severity. Percent disease control was calculated using the ratio of disease severity on treated plants relative to untreated plants.

Data set [2] concerns Puccinia triticina (Synonym: Puccinia recondita f sp. tritici; Bayer Code PUCCRT). Nature of the data set: Fungicidal activity: Wheat Brown Rust (PUCCRT), wheat seedlings in greenhouse. The class given is in vivo. The following applies: wheat (variety Yuma). The method, then: Technical grades of materials were dissolved in acetone, which were then mixed with nine volumes of water containing 110 ppm Triton X-100. The fungicide solutions were applied onto wheat seedlings using an automated booth sprayer to run-off. All sprayed plants were allowed to air dry prior to further handling.
as §1, with “Wheat” for “Technical grades of materials were dissolved in acetone, which were then mixed with nine volumes of water containing 110 ppm Triton X-100. The fungicide solutions were applied onto wheat seedlings using an automated booth sprayer to run-off. All sprayed plants were allowed to air dry prior to further handling. Wheat”
Wheat plants (variety Yuma) were grown from seed in a greenhouse in 50% mineral soil/50% soil-less Metro mix until the first leaf was fully emerged, with 7-10 seedlings per pot. These plants were inoculated with an aqueous spore suspension of Puccinia triticina either prior to or after fungicide treatments. After inoculation the plants were kept in a dark dew room at 22° C. with 100% relative humidity overnight to permit spores to germinate and infect the leaf. The plants were then transferred to a greenhouse set at 24° C. for disease to develop. Fungicide formulation, application and disease assessment followed the procedures as described in Example 18.

Setting [3] is: 1DP, read-out: Disease Control SEPTTR 1DP.
The mark [4] stands for this setting: 3DC, read-out: Disease Control SEPTTR 3DC.
The mark [5] stands for this setting: 1DC, read-out: Disease Control PUCCRT 1DC.
Setting [6] is: 1DP, read-out: Disease Control PUCCRT 1DP.

SMILES strings stand for the structures. Read-outs that look alike come from different tables or passages of the source.

One may read the melting point as the temperature, or range, at which the solid turns liquid.

As for `NC(=S)c1ccc(Oc2ccc(C(F)(F)C(O)(Cn3nn[nH]c3=S)c3ccc(F)cc3F)nc2)cc1` (centres unmarked) [Compound F1, 4-((6-(2-(2,4-difluorophenyl)-1,1-difluoro-2-hydroxy-3-(5-thioxo-4,5-dihydro-1H-tetrazol-)propyl)pyridin-3-yl)oxy)benzothioamide], the melting point was in the range of 214 to 218 °C. The pest or weed control at 50 ppm in data set [1] (setting [3]) lay in the range of 80 to 100%. Moreover, the pest or weed control at 50 ppm in data set [1] (setting [4]) lay in the range of 80 to 100%. For the same compound, in data set [2] (setting [5]), the pest or weed control at 50 ppm was in the range of 80 to 100%. The pest or weed control at 50 ppm in data set [2] (setting [6]) was 80 to 100%.
For the compound `N#Cc1ccc(Oc2ccc(C(F)(F)C(O)(Cn3nn[nH]c3=S)c3ccc(F)cc3F)nc2)cc1` (centres unmarked) [Compound F2, 4-((6-(2-(2,4-difluorophenyl)-1,1-difluoro-2-hydroxy-3-(5-thioxo-4,5-dihydro-1H-tetrazol-)propyl)pyridin-3-yl)oxy)benzonitrile], the pest or weed control at 50 ppm in data set [1] (setting [3]), in data set [1] (setting [4]) and in data set [2] (setting [6]) was 80 to 100% throughout.
Turning to `N#Cc1ccc(Oc2ccc(C(F)(F)C(O)(Cn3nn[nH]c3=S)c3ccc(F)cc3F)nc2)nc1` (centres unmarked) [Compound F3], the pest or weed control at 50 ppm in data set [1] (setting [3]) fell in the range of 80 to 100%; in data set [1] (setting [4]), 0 to 80%; in data set [2] (setting [5]) it was 80 to 100%; in data set [2] (setting [6]), 80 to 100%.
For the compound `OC(Cn1nn[nH]c1=S)(c1ccc(F)cc1F)C(F)(F)c1ccc(Oc2ccc(Cl)cn2)cn1` (centres unmarked) [Compound F4], the pest or weed control at 50 ppm in data set [1] (setting [3]), in data set [1] (setting [4]), in data set [2] (setting [5]) and in data set [2] (setting [6]) was 80 to 100% each time.
Regarding `OC(Cn1nn[nH]c1=S)(c1ccc(F)cc1F)C(F)(F)c1ccc(OCC(F)(F)F)cn1` (centres unmarked) [Compound F5], the pest or weed control at 50 ppm in data set [1] (setting [3]), in data set [1] (setting [4]), in data set [2] (setting [5]) and in data set [2] (setting [6]) was 80 to 100% each time.
For the compound `CSc1nnnn1CC(O)(c1ccc(F)cc1F)C(F)(F)c1ccc(Br)cn1` (centres unmarked) [Compound F6, 1-(5-bromopyridin-2-yl)-2-(2,4-difluorophenyl)-1,1-difluoro-3-(5-(methylthio)-1H-tetrazol-1-yl)propan-2-ol], the “Disease Control SEPTTR 1DP” value in data set [1] (50 ppm, 1DP) is “D”. Besides, the pest or weed control at 50 ppm in data set [1] (setting [4]) was in the range of 0 to 80%; in data set [2] (setting [5]) it was 80 to 100%; in data set [2] (setting [6]), 0 to 80%.
On to `CCSc1nnnn1CC(O)(c1ccc(F)cc1F)C(F)(F)c1ccc(Oc2ccc(C#N)cc2)cn1` (centres unmarked) [Compound F7], for which the pest or weed control at 50 ppm in data set [1] (setting [3]) lay within 0 to 80%; in data set [1] (setting [4]), 80 to 100%; in data set [2] (setting [5]), 80 to 100%; in data set [2] (setting [6]), 80 to 100%.
In the case of `OC(Cn1nn[nH]c1=S)(c1ccc(F)cc1F)C(F)(F)c1ccc(Oc2ccc(C(F)(F)F)cn2)cn1` (centres unmarked) [Compound F8], the pest or weed control at 50 ppm in data set [1] (setting [3]), in data set [1] (setting [4]), in data set [2] (setting [5]) and in data set [2] (setting [6]) was 80 to 100% in each case.
Regarding `OC(Cn1nn[nH]c1=S)(c1ccc(F)cc1F)C(F)(F)c1ccc(COC(F)F)cn1` (centres unmarked) [Compound F9], the pest or weed control at 50 ppm in data set [1] (setting [3]), in data set [1] (setting [4]), in data set [2] (setting [5]) and in data set [2] (setting [6]) was 80 to 100% each time.
With `OC(Cn1nn[nH]c1=S)(c1ccc(F)cc1F)C(F)(F)c1ccc(OC2CC2(F)F)cn1` (centres unmarked) [Compound F10], the melting point is 53 to 57 °C. In data set [1] (setting [3]), the pest or weed control at 50 ppm was 80 to 100%. For the same compound, the pest or weed control at 50 ppm in data set [1] (setting [4]) was in the range of 80 to 100%. Moreover, the pest or weed control at 50 ppm in data set [2] (setting [5]) was 80 to 100%. For the same compound, the pest or weed control at 50 ppm in data set [2] (setting [6]) lay within 80 to 100%.
Turning to `CSc1nnnn1CC(O)(c1ccc(F)cc1F)C(F)(F)c1ccc(Oc2ccc(C#N)cc2)cn1` (centres unmarked) [Compound F11, 4-((6-(2-(2,4-difluorophenyl)-1,1-difluoro-2-hydroxy-3-(5-(methylthio)-1H-tetrazol-1-yl)propyl)pyridin-3-yl)oxy)benzonitrile], the pest or weed control at 50 ppm in data set [1] (setting [3]), in data set [1] (setting [4]) and in data set [2] (setting [6]) was 80 to 100% throughout.
As to `N#Cc1ccc(Oc2ccc(C(F)(F)C(O)(Cn3nnnc3SCc3ccccc3)c3ccc(F)cc3F)nc2)cc1` (centres unmarked) [Compound F12], the pest or weed control at 50 ppm in data set [1] (setting [3]) was 0 to 80%; in data set [1] (setting [4]) it was 80 to 100%; in data set [2] (setting [6]), 80 to 100%.
As to `N#Cc1ccc(Oc2ccc(C(F)(F)C(O)(Cn3nnnc3SCC3CC3)c3ccc(F)cc3F)nc2)cc1` (centres unmarked) [Compound F13], the pest or weed control at 50 ppm in data set [1] (setting [3]), in data set [1] (setting [4]) and in data set [2] (setting [6]) was 80 to 100% throughout.

These data come from patent US9447073B2, “Fungicidal compositions” (Viamet Pharmaceuticals, Inc., priority 2013, dated 2016).
